Measurements as given in ChEMBL document CHEMBL3091383, “Sorbicillamines A-E, nitrogen-containing sorbicillinoids from the deep-sea-derived fungus Penicillium sp. F23-2” (J Nat Prod, 2013).

Assays:
[1] = test system: P388; assay: Cytotoxicity against mouse P388 cells by SRB assay; format: functional, cell-based
[2] = test system: HeLa; assay: Cytotoxicity against human HeLa cells by MTT assay; format: functional, cell-based
[3] = test system: HEK293; assay: Cytotoxicity against HEK293 cells by MTT assay; format: cell-based; conditions: Homo sapiens
[4] = test system: HCT-116; assay: Cytotoxicity against human HCT116 cells by MTT assay; format: functional, cell-based
[5] = Cytotoxicity against human Bel7402 cells by MTT assay; format: functional, cell-based; conditions: Bel-7402

Measured: IC50

C/C=C/C=C/C(=O)C1=C(N)[C@](C)(O)[C@]2(O)O[C@]3(C)C(O)=C(C)C(=O)/C(=C(O)/C=C/C=C/C)[C@@H]3[C@]2(C)C1=O
> 10 µM: all assays above

C/C=C/C=C/C(O)=C1\C(=O)[C@]2(C)C(=O)C(C)(O)[C@H]1[C@H](C(=O)C1=C(N)[C@](C)(O)[C@]3(O)O[C@]4(C)C(O)=C(C)C(=O)\C(=C(O)/C=C/C=C/C)[C@@H]4[C@]3(C)C1=O)[C@H]2/C=C/C (stereo not given in full)
> 10 µM: all assays above

C/C=C/C=C/C(=O)C1=C(O)[C@]2(C)C(=O)[C@@](C)(O)[C@H]1N1CCC[C@@H]12
> 10 µM: all assays above

C/C=C/C=C/C(O)=C1/C(=O)C(C)=C(O)[C@@]2(C)O[C@@]3(O)[C@@](C)(O)C4=C(C(=O)C[C@@H](/C=C/C)N4)C(=O)[C@@]3(C)[C@@H]12
> 10 µM: all assays above

C/C=C/C=C/C(O)=C1/C(=O)C(C)=C(O)[C@@]2(C)O[C@@]3(O)[C@@](C)(O)C4=C(C(=O)C[C@H](/C=C/C)N4)C(=O)[C@@]3(C)[C@@H]12
> 10 µM: all assays above
